Measurements published in paper PMC7539012, “Hyperphosphorylated tau aggregation and cytotoxicity modulators screen identified prescription drugs linked to Alzheimer's disease and cognitive functions” (Scientific Reports, 2020).
Structures can show the parent of a compound that is named as a salt.
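Further: 30 µM compound with 6 µM p-tau over 16 h.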

The compounds below were run on T1, 1N4R p-tau (assay: p-tau aggregation modulator screen of 1280-compound library (ThS fluorescence net change over 16 h)). Conditions: not given.
T1 construct: made in house; host or cells: E. coli (PIMAX system)
Format: biochemical
Work on `Brc1c(NC2=NCCN2)ccc2nccnc12.O=C(O)C(O)C(O)C(=O)O` [Brimondine L-Tartrate] yielded a ThS net change of 418. In the case of `CC[C@H](C)[C@H]1O[C@]2(CC[C@@H]1C)C[C@@H]1C[C@@H](C/C=C(\C)[C@@H](O[C@H]3C[C@H](OC)[C@@H](O[C@H]4C[C@H](OC)[C@@H](O)[C@H](C)O4)[C@H](C)O3)[C@@H](C)/C=C/C=C3\CO[C@@H]4[C@H](O)C(C)=C[C@@H](C(=O)O1)[C@]34O)O2` [Ivermectin], the ThS net change is reported as 543. `COc1cccc2c1C(=O)c1c(O)c3c(c(O)c1C2=O)C[C@@](O)(C(C)=O)C[C@@H]3O[C@H]1C[C@H](N)[C@H](O)[C@H](C)O1` [Daunorubicin hydrochloride] was tested, and the ThS net change was 235. `CN1[C@@H]2C[C@@H](OC(=O)[C@H](CO)c3ccccc3)C[C@H]1[C@@H]1O[C@@H]12.Cl` [Scopolamine hydrochloride] showed a ThS net change of 389.

Same assay, conditions: 1280-compound library screen; ThS fluorescence net change over 16 h
`CS(=O)(=O)c1ccc([C@@H](O)[C@@H](CO)NC(=O)C(Cl)Cl)cc1` [Thiamphenicol] showed a ThS net change of 380. Work on `N#Cc1cc(NC(=O)C(=O)O)c(Cl)c(NC(=O)C(=O)O)c1` [Lodoxamide] yielded a ThS net change of 409. Work on `COc1ccccc1O` [Guaiacol] yielded a ThS net change of 397. Compound `Cl.c1cnc(N2CCN(Cc3ccc4c(c3)OCO4)CC2)nc1` [Piribedil hydrochloride] has a ThS net change of 392. `CC1CC(OC(=O)C(O)c2ccccc2)CC(C)(C)N1C` (stereo not shown) [Eucatropine hydrochloride] was tested, and the ThS net change was 387.

Same assay, conditions: 1280-compound library screen; […]
With `Cl.O.O.O=C1CC[C@@]2(O)[C@H]3Cc4ccc(O)c5c4[C@@]2(CCN3CC2CC2)[C@H]1O5` [Naltrexone hydrochloride dihydrate] the ThS net change was 408.

Same assay, conditions: library screen, ThS fluorescence net change over 16 h with p-tau
With `CN(C)CCC(c1ccccc1)c1ccccn1` (stereo not shown) [Pheniramine maleate] the ThS net change was 318. `[H]/N=C(\N/C(=N/[H])NCCCCCCNC(=N)NC(=N)Nc1ccc(Cl)cc1)Nc1ccc(Cl)cc1` [Chlorhexidine] was tested, and the ThS net change was 317. Compound `CCCCCCC[N+](CC)(CC)CCCCc1ccc(Cl)cc1.Cc1ccc(S(=O)(=O)[O-])cc1` [Clofilium tosylate] has a ThS net change of 326. Compound `CC(CCc1ccc(O)cc1)NCCc1ccc(O)c(O)c1` (stereo not shown) [Dobutamine hydrochloride] has a ThS net change of 257. In the case of `Cc1cc(N)c2ccccc2[n+]1CCCCCCCCCC[n+]1c(C)cc(N)c2ccccc21` [Dequalinium dichloride], the ThS net change is reported as 297.

Same assay, conditions: p-tau aggregation modulator screen of 1280-compound library; ThS fluorescence net change
Compound `NC[C@@H]1O[C@H](O[C@H]2[C@@H](O)[C@H](O[C@@H]3[C@@H](O)[C@H](N)C[C@H](N)[C@H]3O[C@H]3O[C@H](CN)[C@@H](O)[C@H](O)[C@H]3N)O[C@@H]2CO)[C@H](N)[C@@H](O)[C@@H]1O.O=S(=O)(O)O` [Neomycin sulfate] has a ThS net change of 340. Work on `Cc1cc(=O)oc2cc(O)ccc12` [Hymecromone] yielded a ThS net change of 357. `OC(CCN1CCCC1)(c1ccccc1)C1CCCCC1` (stereo not shown) [Procyclidine hydrochloride] gave a ThS net change of 347. `Cc1c(N(C)C)c(=O)n(-c2ccccc2)n1C` [Amidopyrine] gave a ThS net change of 368. Work on `COc1ccc2[nH]cc(CCNC(C)=O)c2c1` [Melatonin] yielded a ThS net change of 356.

Same assay, conditions: p-tau aggregation modulator screen of 1280-compound library; […]
With `CCCC(C)(COC(N)=O)COC(=O)NC(C)C` (stereo not shown) [Carisoprodol] the ThS net change was 370.

Same assay, conditions: p-tau aggregation modulator screen of the compound library, ThS fluorescence net change
With `CCOC(=O)[C@H](CCc1ccccc1)N[C@@H](C)C(=O)N1Cc2ccccc2C[C@H]1C(=O)O` [Quinapril HCl] the ThS net change was 417. For `COc1cc(-c2ccc(=O)[nH]n2)ccc1OC(F)F` [Zardaverine], the ThS net change was 454. `CCCCc1oc2ccccc2c1C(=O)c1cc(I)c(OCCN(CC)CC)c(I)c1` [Amiodarone hydrochloride] gave a ThS net change of 436. For `CCc1c(C)[nH]c2c1C(=O)C(CN1CCOCC1)CC2` (stereo not shown) [Molindone hydrochloride], the ThS net change was 458. Compound `COC(=O)[C@H](c1ccccc1Cl)N1CCc2sccc2C1` [Clopidogrel] has a ThS net change of 499. `Cc1nc2ccc(CN(C)c3ccc(C(=O)N[C@@H](CCC(=O)O)C(=O)O)s3)cc2c(=O)[nH]1` [Raltitrexed] showed a ThS net change of 443. In the case of `CCOc1ccc(Cc2nccc3cc(OCC)c(OCC)cc23)cc1OCC` [Ethaverine hydrochloride], the ThS net change is reported as 439.
